The values that follow are results of earlier work, collected in US20070028401A1, “Powdered preparations containing a mixture of 2,4,6-trianilino-p-(carbo-2'-ethylhexyl-1'-oxi)-1,3,5-triazine and diethylamino-hydroxybenzoyl-hexyl-benzoate” (BASF Aktiengesellschaft, priority 2003, published 2007).

Read-outs that look alike come from different tables or passages of the source.

On to `CCCCC(CC)COC(=O)c1ccc(Nc2nc(Nc3ccc(C(=O)OCC(CC)CCCC)cc3)nc(Nc3ccc(C(=O)OCC(CC)CCCC)cc3)n2)cc1` (centres unmarked) [Uvinul T150, 2,4,6-Trianilino-p-(carbo-2′-ethylhexyl-1′-oxy)-1,3,5-triazine], for which the absorbance coefficient (at 314 nm) is greater than 1500.

`CCCCCCOC(=O)c1ccccc1C(=O)c1ccc(N(CC)CC)cc1O` [Uvinul® A Plus, Diethylamino hydroxybenzoyl hexyl benzoate]: the absorbance coefficient (at 354 nm) is on record as 940.
